# Test results as given in ChEMBL document CHEMBL1201862, “PubChem BioAssay data set” (2004).
#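 Step 1: Grow cells in 96-well plates. Step 2: Expose to compound for 48 hours at 5 concentrations. Step 3: Interpolate endpoints linearly; if unreached, use highest concentration. Here, GI50 denotes the concentration required for 50% inhibition of growth.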 Active and inactive are the calls of the source. No stated cut-off is given here; in the data, active = GI50 up to about 1.1 µM and inactive = higher.
# Tests used:
# Assay in all cases: NCI anticancer screen, dose series, 48 h
# DU-145 = system: DU-145
# SF-295 = system: SF-295
# KM12 = system: KM12
# A549 = system: A549
# NCI-H460 = system: NCI-H460
# SK-MEL-5 = system: SK-MEL-5
# SF-539 = system: SF-539
# RPMI-8226 = system: RPMI-8226
# UACC-257 = system: UACC-257
# CAKI-1 = system: CAKI-1
# K562 = system: K562
# SNB-75 = system: SNB-75
# Hs-578T = system: Hs-578T
# HT-29 = system: HT-29
# 786-0 = system: 786-0
# NCI-H226 = system: NCI-H226
# SR = system: SR
# HL-60 = system: HL-60
# Malme-3M = system: Malme-3M
# U-251 = system: U-251
SMILES,GI50 (DU-145),GI50 (SF-295),GI50 (KM12),GI50 (A549),GI50 (NCI-H460),GI50 (SK-MEL-5),GI50 (SF-539),GI50 (RPMI-8226),GI50 (UACC-257),GI50 (CAKI-1),GI50 (K562),GI50 (SNB-75),GI50 (Hs-578T),GI50 (HT-29),GI50 (786-0),GI50 (NCI-H226),GI50 (SR),GI50 (HL-60),GI50 (Malme-3M),GI50 (U-251)
C=CC(=O)N1C/C(=C\c2ccc(Cl)cc2)C(=O)/C(=C/c2ccc(Cl)cc2)C1,0.813 µM (active),0.288 µM (active),0.234 µM (active),0.356 µM (active),0.468 µM (active),1.36 µM (inactive),0.188 µM (active),0.0263 µM (active),1.19 µM (inactive),0.343 µM (active),0.265 µM (active),0.405 µM (active),0.321 µM (active),0.0989 µM (active),0.21 µM (active),0.237 µM (active),0.05 µM (active),0.484 µM (active),0.973 µM (active),0.173 µM (active)
CCOC(=O)c1cccc(/N=N/c2nc[nH]c2/C=C/C(=O)OC)c1,37.4 µM (inactive),12.9 µM (inactive),15.8 µM (inactive),39.5 µM (inactive),16.5 µM (inactive),7.36 µM (inactive),7.14 µM (inactive),9.02 µM (inactive),12.9 µM (inactive),4.97 µM (inactive),4.06 µM (inactive),18.5 µM (inactive),53.5 µM (inactive),6.98 µM (inactive),7.36 µM (inactive),64.4 µM (inactive),2.11 µM (inactive),3.37 µM (inactive),8.71 µM (inactive),6.73 µM (inactive)
COc1ccc(S(=O)(=O)N2C(=O)CCC2C(=O)NN)cc1 (stereo not given),> 100 µM (inactive),> 100 µM (inactive),> 100 µM (inactive),> 100 µM (inactive),> 100 µM (inactive),> 100 µM (inactive),> 100 µM (inactive),> 100 µM (inactive),> 100 µM (inactive),> 100 µM (inactive),> 100 µM (inactive),> 100 µM (inactive),61.8 µM (inactive),> 100 µM (inactive),> 100 µM (inactive),> 100 µM (inactive),> 100 µM (inactive),> 100 µM (inactive),> 100 µM (inactive),> 100 µM (inactive)
CCN(C(C)=O)c1cnc(/C=N/NC(N)=S)c2ccccc12,2.06 µM (inactive),3.14 µM (inactive),2.94 µM (inactive),4.01 µM (inactive),1.5 µM (inactive),2.84 µM (inactive),2.93 µM (inactive),3.08 µM (inactive),30.1 µM (inactive),3.3 µM (inactive),4 µM (inactive),18.7 µM (inactive),80.5 µM (inactive),3.49 µM (inactive),1.61 µM (inactive),3.44 µM (inactive),0.631 µM (active),1.77 µM (inactive),11.4 µM (inactive),3.85 µM (inactive)
Cc1ccc2cccc(OC(=O)c3cc4c(cc3Cl)Sc3nccn3S4(=O)=O)c2n1,5.83 µM (inactive),12.9 µM (inactive),5.75 µM (inactive),11.2 µM (inactive),3.13 µM (inactive),12.3 µM (inactive),5.61 µM (inactive),2.33 µM (inactive),12.2 µM (inactive),26.6 µM (inactive),4.06 µM (inactive),9.66 µM (inactive),13.4 µM (inactive),10 µM (inactive),17 µM (inactive),21 µM (inactive),3.75 µM (inactive),< 0.01 µM (active),17.5 µM (inactive),4.34 µM (inactive)
C#CC1(OC(C)=O)CCC2C3CC=C4C=C(OC(C)=O)CCC4(C)C3CCC21C (stereo not given),31.1 µM (inactive),25.2 µM (inactive),20.4 µM (inactive),31.6 µM (inactive),27 µM (inactive),18.3 µM (inactive),21.3 µM (inactive),< 0.01 µM (active),17.4 µM (inactive),36.5 µM (inactive),23.9 µM (inactive),28.1 µM (inactive),40.4 µM (inactive),17.2 µM (inactive),30.3 µM (inactive),24.8 µM (inactive),16.3 µM (inactive),28.6 µM (inactive),18 µM (inactive),19.5 µM (inactive)
C(=C(c1ccc(OC2CCCCO2)cc1)c1ccc(OC2CCCCO2)cc1)c1ccccc1 (stereo not given),0.838 µM (active),1.18 µM (inactive),0.156 µM (active),0.522 µM (active),0.395 µM (active),0.444 µM (active),1.53 µM (inactive),0.294 µM (active),0.378 µM (active),0.637 µM (active),0.35 µM (active),0.605 µM (active),1.13 µM (inactive),0.386 µM (active),0.519 µM (active),1.21 µM (inactive),0.371 µM (active),0.233 µM (active),0.863 µM (active),0.792 µM (active)
COc1ccc2c(c1)CCN1CCc3ccccc3CC21 (stereo not given),65.2 µM (inactive),19.2 µM (inactive),37.2 µM (inactive),49.7 µM (inactive),30.8 µM (inactive),15.1 µM (inactive),36.6 µM (inactive),19.1 µM (inactive),29.7 µM (inactive),47.2 µM (inactive),29 µM (inactive),30.2 µM (inactive),72.6 µM (inactive),27.8 µM (inactive),31.3 µM (inactive),29 µM (inactive),35.2 µM (inactive),16.8 µM (inactive),43.1 µM (inactive),34.7 µM (inactive)
COc1ccccc1N(CN1C(=O)CCC1C(=O)O)C(C)=O (stereo not given),> 100 µM (inactive),> 100 µM (inactive),> 100 µM (inactive),> 100 µM (inactive),> 100 µM (inactive),> 100 µM (inactive),> 100 µM (inactive),> 100 µM (inactive),> 100 µM (inactive),> 100 µM (inactive),> 100 µM (inactive),> 100 µM (inactive),> 100 µM (inactive),> 100 µM (inactive),> 100 µM (inactive),> 100 µM (inactive),72.6 µM (inactive),> 100 µM (inactive),> 100 µM (inactive),> 100 µM (inactive)
CCOP(=O)(OCC)/C(C#N)=C/c1c(C)[nH]c2ccccc12,> 100 µM (inactive),> 100 µM (inactive),> 100 µM (inactive),> 100 µM (inactive),> 100 µM (inactive),> 100 µM (inactive),> 100 µM (inactive),> 100 µM (inactive),> 100 µM (inactive),> 100 µM (inactive),> 100 µM (inactive),> 100 µM (inactive),> 100 µM (inactive),> 100 µM (inactive),> 100 µM (inactive),> 100 µM (inactive),> 100 µM (inactive),> 100 µM (inactive),> 100 µM (inactive),> 100 µM (inactive)
COc1c2c3c4c(c(OC)c(=O)c5c(O)cc(OC)c(c6c(OC)cc(O)c(c1=O)c63)c54)C(C(C)O)C2C(C)O (stereo not given),2.43 µM (inactive),0.562 µM (active),0.873 µM (active),0.735 µM (active),0.345 µM (active),0.24 µM (active),0.796 µM (active),0.706 µM (active),0.792 µM (active),0.53 µM (active),0.387 µM (active),0.518 µM (active),0.855 µM (active),1.16 µM (inactive),0.789 µM (active),0.796 µM (active),1.31 µM (inactive),0.392 µM (active),1.17 µM (inactive),0.405 µM (active)
CN(C)/C=N\c1cccc2c1NSN2,> 100 µM (inactive),> 100 µM (inactive),> 100 µM (inactive),> 100 µM (inactive),> 100 µM (inactive),> 100 µM (inactive),> 100 µM (inactive),> 100 µM (inactive),> 100 µM (inactive),> 100 µM (inactive),> 100 µM (inactive),> 100 µM (inactive),> 100 µM (inactive),> 100 µM (inactive),> 100 µM (inactive),> 100 µM (inactive),> 100 µM (inactive),> 100 µM (inactive),> 100 µM (inactive),> 100 µM (inactive)
Nc1nc2c(ncn2C2C=CC(COS(N)(=O)=O)C2)c(=O)[nH]1 (stereo not given),> 100 µM (inactive),> 100 µM (inactive),> 100 µM (inactive),> 100 µM (inactive),> 100 µM (inactive),> 100 µM (inactive),> 100 µM (inactive),> 100 µM (inactive),> 100 µM (inactive),> 100 µM (inactive),> 100 µM (inactive),> 100 µM (inactive),> 100 µM (inactive),> 100 µM (inactive),> 100 µM (inactive),> 100 µM (inactive),> 100 µM (inactive),> 100 µM (inactive),> 100 µM (inactive),> 100 µM (inactive)
COc1cccc(/C=C\c2ccc(O)cc2)c1,13.1 µM (inactive),28.6 µM (inactive),1.4 µM (inactive),16.9 µM (inactive),4.1 µM (inactive),17.6 µM (inactive),13.7 µM (inactive),22.4 µM (inactive),26.7 µM (inactive),17.7 µM (inactive),8.77 µM (inactive),24 µM (inactive),19.7 µM (inactive),21.3 µM (inactive),10.4 µM (inactive),28.2 µM (inactive),2.72 µM (inactive),0.151 µM (active),20.2 µM (inactive),11.2 µM (inactive)
